As a reminder, the IC50 is the concentration that inhibits the measured activity by half.

The values that follow come from patent publication US8129396B2, “2-[1H-benzimidazol-2(3H)-ylidene]-2-(pyrimidin-2-yl)acetamides and 2-[benzothiazol-2(3H)-ylidene]-2-(pyrimidin-2-yl)acetamides as kinase inhibitors” (Telik, Inc., priority 2008, dated 2012).

Bounds are passed on as bounds.

Assay [1] deals with HCT116 (human colon carcinoma) cells. Kind of assay: HCT116 cytotoxicity assay (CellTiter-Glo). It is filed as cell-based. To be noted: HCT-116, 72 h, cytotoxicity, three days culture, read-out: HCT116 IC50. The source says:
(§1) The cell lines HL60 (human promyelocytic leukemia) and HCT116 (human colon carcinoma) were obtained from the American Type Culture Collection, Manassas, Va., U.S.A., and HUVEC-2 (human umbilical vein endothelial cells) from BD Biosciences, Bedford, Mass., U.S.A. Aurora A kinase was obtained from Upstate Biotech, Billerica, Mass., U.S.A.; Aurora B kinase from BPS Bioscience, San Diego, Calif., U.S.A.; and VEGFR2 kinase from Cell Signaling Technology, Danvers, Mass., U.S.A. The IMAP FP Screening Express kit was obtained from Molecular Devices, Sunnyvale, Calif., U.S.A.; the CellTiter-Glo assay kit from Promega Corporation, Madison, Wis., U.S.A.; and the Cellular DNA Cytometric Analysis Reagent Kit and BrdU labeling and detection kit from Roche Diagnostics Corporation, Indianapolis, Ind., U.S.A. All products were used in accordance with manufacturer's directions. Kinase inhibition assays and the histone phosphorylation (p-H3) assay were conducted in duplicate, and the cytotoxicity and HUVEC proliferation assays were conducted in triplicate, in each case with solvent control.
Log-phase cells were trypsinized, collected by centrifugation, and resuspended in a small volume of fresh medium, and the density of viable cells was determined following Trypan Blue staining. Cells were diluted in fresh media (1×10^4 cells/mL for HL60 and 4×10^4 cells/mL for HCT116 cells), the test compounds (concentrations between 0.1 μM and 200 μM, dissolved in DMSO, 50 μL) added immediately after dilution to achieve a final DMSO concentration of 0.5%, then the suspensions added at 150 μL/well to 96-well plates, and incubated overnight to allow attachment in the case of adherent cells. The cells were cultured for three days (about three doubling times). The cells were then collected by centrifugation, and 100 μL of the culture supernatant was replaced by the CellTiter-Glo reagent. After incubation for 15 minutes at room temperature, the plate was read with a luminometer.
(In general: ATP-based viability assays read luminescence as a measure of living cells.)

The target of a further assay is T1, VEGFR2 kinase (Homo sapiens, UniProt P35968).
T1 construct: purchased Cell Signaling Technology
The assay can be described thus: VEGFR2 kinase assay. To be noted: 6 μM ATP, 1 mM MnCl2; rounded to 1 significant figure. It is filed as biochemical.
Text: as §1
This assay was performed as for the Aurora A kinase assay, using VEGFR2 kinase, CSKtide as the substrate with 6 μM ATP and 1 mM MnCl2, a kinase reaction time of 1 hr, and dilution of the binding reagent 1:1200 in binding buffer A/binding buffer B (1:1).

Assay [2] deals with HUVEC-2 (human umbilical vein endothelial cells). Kind of assay: HUVEC VEGF-dependent proliferation assay (BrdU). Particulars: VEGF (25 ng/mL)-dependent proliferation, read-out: HUVEC IC50. Type of assay: cell-based.
Text: as §1
HUVEC-2 cells were seeded at 10^4 cells/well in a 96-well plate coated with 0.1% gelatin in complete medium. […] The compounds were serially diluted in DMSO, and added to the cells at 0.5% DMSO final concentration. After 2 hr, VEGF (25 ng/mL) was added; and after a further day, 5-bromo-2-deoxyuridine (BrdU, 10 μM) was added to label proliferating cells, and the cells incubated for another day. The plates were then processed using the Roche BrdU labeling and detection kit, and the VEGF-dependent antiproliferative activity of the compounds determined.

A further assay has as its system p-H3 in HCT116 cells. The assay can be described thus: Histone phosphorylation (p-H3) assay. It is filed as cell-based. To be noted: Homo sapiens, HCT-116; HCT116 cells, 4 hr incubation; read-out: p-H3 IC50.
Text: as §1
Log phase HCT116 cells were seeded at 2.5×10^4 cells/well in a 96-well plate and allowed to attach overnight. The test compounds were diluted in DMSO (8 concentrations with serial 3-fold dilutions) and added to the cells (0.5% DMSO final concentration), and the cells incubated for 4 hr. The cells were then washed three times with cold phosphate-buffered saline (PBS), and lysis buffer was added. After 30 min shaking at 4° C. and centrifugation, the supernatants were transferred to a nitrocellulose membrane by a “dot-blot” apparatus. After washing the wells, the membrane was processed for Western blot. Detection of p-H3 and β-actin was performed on the same membrane with primary rabbit anti-p-H3 and mouse anti-β-actin antibodies followed by secondary goat anti-rabbit IRDye800 and goat anti-mouse AlexaFluor 680 antibodies. The membranes were scanned on an Odyssey scanner.

In a further assay the target is T2, Aurora A kinase (Homo sapiens, UniProt O14965).
T2 construct: purchased Upstate Biotech
T2 sequence (O14965 1-403): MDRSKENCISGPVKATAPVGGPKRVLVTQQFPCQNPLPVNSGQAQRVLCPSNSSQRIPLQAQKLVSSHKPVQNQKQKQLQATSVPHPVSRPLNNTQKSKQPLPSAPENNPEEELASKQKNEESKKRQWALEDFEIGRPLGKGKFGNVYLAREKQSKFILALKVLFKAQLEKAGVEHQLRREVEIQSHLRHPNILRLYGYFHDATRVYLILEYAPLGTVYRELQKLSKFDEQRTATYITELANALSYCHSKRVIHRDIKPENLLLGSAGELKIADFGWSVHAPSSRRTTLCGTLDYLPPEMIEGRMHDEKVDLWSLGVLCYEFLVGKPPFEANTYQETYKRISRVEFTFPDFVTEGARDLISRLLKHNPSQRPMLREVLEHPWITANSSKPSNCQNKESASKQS
The assay can be described thus: Aurora A kinase assay (IMAP fluorescence polarization). Type of assay: biochemical. Particulars: 10 μM ATP; rounded to 1 significant figure; read-out: Aur-A IC50.
Text: as §1
Aurora A kinase assay: the test compounds were diluted in dimethylsulfoxide (DMSO, eight concentrations with serial 3-fold dilutions) and incubated (final DMSO concentration 2.5%) with Aurora A kinase at room temperature for 5 min in kinase reaction buffer with 1 mM dithiothreitol (IMAP FP Screening Express). The kinase reaction was initiated by adding 100 nM fluorescein labeled PKAtide and 10 μM adenosine triphosphate (ATP), and allowed to continue for 45 min at room temperature, after which it was stopped by adding binding reagent (1:400 dilution in binding buffer A). After 30 min of room temperature incubation with shaking, the fluorescence polarization was measured on a LJL plate reader. Aurora B kinase assay: performed as for the Aurora A kinase assay, but using Aurora B kinase instead of Aurora A kinase.
(Polarisation of emitted light reports the rotation of a fluorescent probe.)

In a further assay the target is T3, Aurora B kinase (Homo sapiens, UniProt Q96GD4).
T3 construct: purchased BPS Bioscience
The assay can be described thus: Aurora B kinase assay (IMAP fluorescence polarization). It is filed as biochemical. To be noted: 10 μM ATP; rounded to 1 significant figure; read-out: Aur-B IC50.
Text: as §1
The kinase reaction was initiated by adding 100 nM fluorescein labeled PKAtide and 10 μM adenosine triphosphate (ATP), and allowed to continue for 45 min at room temperature, after which it was stopped by adding binding reagent (1:400 dilution in binding buffer A). After 30 min of room temperature incubation with shaking, the fluorescence polarization was measured on a LJL plate reader. Aurora B kinase assay: performed as for the Aurora A kinase assay, but using Aurora B kinase instead of Aurora A kinase.

T3 sequence (Q96GD4 whole entry): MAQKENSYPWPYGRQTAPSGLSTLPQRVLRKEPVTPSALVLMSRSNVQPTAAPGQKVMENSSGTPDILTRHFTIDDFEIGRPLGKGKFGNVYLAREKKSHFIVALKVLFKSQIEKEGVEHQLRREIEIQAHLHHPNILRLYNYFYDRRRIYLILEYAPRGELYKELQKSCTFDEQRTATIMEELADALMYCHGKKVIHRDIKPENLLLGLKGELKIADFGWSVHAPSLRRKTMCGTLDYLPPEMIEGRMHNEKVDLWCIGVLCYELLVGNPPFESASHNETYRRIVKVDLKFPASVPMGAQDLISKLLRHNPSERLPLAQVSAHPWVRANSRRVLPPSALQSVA
T1 sequence (P35968 20-1356): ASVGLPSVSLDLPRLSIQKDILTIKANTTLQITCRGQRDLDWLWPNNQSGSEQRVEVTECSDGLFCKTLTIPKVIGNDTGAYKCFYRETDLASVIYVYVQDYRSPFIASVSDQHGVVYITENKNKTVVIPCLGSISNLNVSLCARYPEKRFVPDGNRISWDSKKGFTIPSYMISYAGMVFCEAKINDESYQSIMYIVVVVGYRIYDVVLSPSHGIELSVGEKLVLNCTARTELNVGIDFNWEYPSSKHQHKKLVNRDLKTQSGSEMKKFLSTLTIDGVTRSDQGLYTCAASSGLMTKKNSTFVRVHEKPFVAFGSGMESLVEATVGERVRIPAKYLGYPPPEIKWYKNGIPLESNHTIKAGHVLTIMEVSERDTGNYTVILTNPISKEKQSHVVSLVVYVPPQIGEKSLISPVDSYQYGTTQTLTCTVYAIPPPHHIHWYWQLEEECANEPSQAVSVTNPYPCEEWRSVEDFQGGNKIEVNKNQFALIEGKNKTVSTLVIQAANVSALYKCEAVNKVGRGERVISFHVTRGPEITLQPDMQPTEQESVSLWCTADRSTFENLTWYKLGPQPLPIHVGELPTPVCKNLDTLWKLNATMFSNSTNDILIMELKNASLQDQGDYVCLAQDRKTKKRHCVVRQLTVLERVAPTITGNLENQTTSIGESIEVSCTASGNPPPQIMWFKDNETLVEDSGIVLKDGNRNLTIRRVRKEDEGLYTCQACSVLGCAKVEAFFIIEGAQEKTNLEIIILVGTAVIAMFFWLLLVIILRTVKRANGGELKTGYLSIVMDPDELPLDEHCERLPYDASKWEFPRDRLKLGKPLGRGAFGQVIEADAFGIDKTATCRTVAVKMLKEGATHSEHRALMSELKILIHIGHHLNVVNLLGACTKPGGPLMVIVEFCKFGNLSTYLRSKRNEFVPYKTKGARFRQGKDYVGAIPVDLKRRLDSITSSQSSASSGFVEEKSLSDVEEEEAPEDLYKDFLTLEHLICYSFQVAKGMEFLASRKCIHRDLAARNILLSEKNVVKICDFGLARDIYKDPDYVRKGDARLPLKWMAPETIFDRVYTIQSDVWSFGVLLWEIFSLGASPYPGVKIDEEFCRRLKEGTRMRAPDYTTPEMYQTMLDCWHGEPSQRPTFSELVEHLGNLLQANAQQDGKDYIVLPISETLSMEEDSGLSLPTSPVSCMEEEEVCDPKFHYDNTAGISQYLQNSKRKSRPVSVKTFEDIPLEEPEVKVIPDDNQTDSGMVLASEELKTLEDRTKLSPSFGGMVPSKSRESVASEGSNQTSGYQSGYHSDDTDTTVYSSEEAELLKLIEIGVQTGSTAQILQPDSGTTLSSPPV

Turning to `NCC(=O)Nc1ccc2c(c1)SC(=C(C(N)=O)c1nccc(C(F)(F)F)n1)N2` (single isomer, unassigned) [Compound 76A, 2-{6-[(2-aminoacetyl)-amino]benzothiazol-2(3H)-ylidene}-2-(4-trifluoromethylpyrimidin-2-yl)acetamide], the concentration for half-maximal inhibition (IC50) in assay [1] came out at 700 nM; at VEGFR2 kinase it was 80 nM; in assay [2], 100 nM; with p-H3 in HCT116 cells, 200 nM; on Aurora A kinase, 50 nM; at Aurora B kinase, 5 nM.

Take `CN1CCN(C(=O)c2cnc(C(C(N)=O)=C3Nc4ccccc4S3)nc2C(F)(F)F)CC1` (single isomer, unassigned) [Compound 130A, 2-[benzothiazol-2(3H)-ylidene]-2-[5-(4-methylpiperazine-1-carbonyl)-4-trifluoromethylpyrimidin-2-yl]acetamide]: the IC50 stood at 2000 nM in assay [1]; 20 nM against VEGFR2 kinase; 400 nM in assay [2]; 300 nM in the assay on p-H3 in HCT116 cells; 100 nM at Aurora A kinase; 9 nM on Aurora B kinase.

For `COc1ccnc(/C(C(N)=O)=C2/Nc3ccccc3S2)n1` [Compound 16A], the IC50 stood at 2000 nM in assay [1]; 300 nM against VEGFR2 kinase; 2000 nM in assay [2]; 2000 nM with p-H3 in HCT116 cells; 100 nM at Aurora A kinase; 20 nM on Aurora B kinase.

As to `NC(=O)/C(=C1\Nc2ccc(C(=O)O)cc2N1)c1nccc(C(F)(F)F)n1` [Compound 28A], the IC50 in assay [1] amounted to 4000 nM; on VEGFR2 kinase, 10 nM; in assay [2] it was 40 nM; in the assay with p-H3 in HCT116 cells it was 4000 nM; on Aurora A kinase, 5 nM; at Aurora B kinase, 5 nM.

`NC(=O)/C(=C1\Nc2ccc(C(=O)Nc3ccncc3)cc2N1)c1nccc(C(F)(F)F)n1` [Compound 44A]: the IC50 in assay [1] worked out at 200 nM; at VEGFR2 kinase, 10 nM; in assay [2] it was 80 nM; with p-H3 in HCT116 cells, 200 nM; at Aurora A kinase, 10 nM; at Aurora B kinase it was 10 nM.

On to `NC(=O)/C(=C1\Nc2cc(F)c(C(=O)NCCCN3CCOCC3)cc2S1)c1nccc(C(F)(F)F)n1` [Compound 50A], for which the IC50 was determined as 300 nM in assay [1]; 20 nM against VEGFR2 kinase; 90 nM in assay [2]; 400 nM in the assay with p-H3 in HCT116 cells; 20 nM on Aurora A kinase; 10 nM on Aurora B kinase.

Turning to `CCN1CCN(CCCNC(=O)c2ccc3c(c2)N/C(=C(/C(N)=O)c2nccc(C(F)(F)F)n2)N3)CC1` [Compound 55A], the half-maximal inhibitory concentration (IC50) in assay [1] was found to be 300 nM; on VEGFR2 kinase it was 20 nM; in assay [2], 50 nM; in the assay with p-H3 in HCT116 cells, 700 nM; at Aurora A kinase, 20 nM; at Aurora B kinase, 20 nM.

On to `CCN1CCN(CCCNC(=O)c2ccc3c(c2)S/C(=C(/C(N)=O)c2nccc(C(F)(F)F)n2)N3)CC1` [Compound 56A], for which the IC50 in assay [1] is 40 nM; against VEGFR2 kinase, 20 nM; in assay [2], 40 nM; with p-H3 in HCT116 cells, 700 nM; at Aurora A kinase, 20 nM; on Aurora B kinase it was 20 nM.

In the case of `CN1CCN(CCNC(=O)c2ccc3c(c2)S/C(=C(/C(N)=O)c2nccc(C(F)(F)F)n2)N3)CC1` [Compound 57A], the IC50 is 100 nM in assay [1]; 10 nM against VEGFR2 kinase; 20 nM in assay [2]; 100 nM with p-H3 in HCT116 cells; 20 nM at Aurora A kinase; 20 nM on Aurora B kinase.

Regarding `CN1CCN(C(=O)c2ccc3c(c2)N/C(=C(/C(N)=O)c2nccc(C(F)(F)F)n2)N3)CC1` [Compound 58A], the IC50 came out at 400 nM in assay [1]; 9 nM at VEGFR2 kinase; 60 nM in assay [2]; 500 nM in the assay with p-H3 in HCT116 cells; 9 nM on Aurora A kinase; 5 nM at Aurora B kinase.

With `CN1CCN(C(=O)c2ccc3c(c2)S/C(=C(/C(N)=O)c2nccc(C(F)(F)F)n2)N3)CC1` [Compound 59A], the IC50 was found to be 400 nM in assay [1]; 6 nM against VEGFR2 kinase; 50 nM in assay [2]; 90 nM in the assay on p-H3 in HCT116 cells; 8 nM on Aurora A kinase; 20 nM on Aurora B kinase.

With `CN(C)CCCNC(=O)c1ccc2c(c1)N/C(=C(/C(N)=O)c1nccc(C(F)(F)F)n1)N2` [Compound 62A], the IC50 worked out at 60 nM in assay [1]; 6 nM against VEGFR2 kinase; 60 nM in assay [2]; 400 nM in the assay with p-H3 in HCT116 cells; 70 nM on Aurora A kinase; 10 nM at Aurora B kinase.

Take `NC(=O)/C(=C1\Nc2ccc(C(=O)NC3CCNCC3)cc2N1)c1nccc(C(F)(F)F)n1` [Compound 70A]: the half-maximal inhibitory concentration (IC50) in assay [1] was 600 nM; against VEGFR2 kinase it was 4 nM; with p-H3 in HCT116 cells, 1000 nM; on Aurora A kinase, 60 nM; at Aurora B kinase, 10 nM.

With `NC(=O)/C(=C1\Nc2ccc(N3CCC(N)C3)cc2S1)c1nccc(C(F)(F)F)n1` (centres unmarked) [Compound 123A], the IC50 was found to be 4000 nM in assay [1]; 90 nM at VEGFR2 kinase; 2000 nM in the assay with p-H3 in HCT116 cells; 100 nM on Aurora A kinase; 40 nM on Aurora B kinase.

`NC(=O)/C(=C1\Nc2ccc(NCCN3CCOCC3)cc2S1)c1nccc(C(F)(F)F)n1` [Compound 124A]: the half-maximal inhibitory concentration (IC50) in assay [1] is above 20000 nM; at VEGFR2 kinase, 100 nM; in assay [2] it was 3000 nM; on Aurora A kinase, 30 nM; on Aurora B kinase, 30 nM.

As for `NC(=O)/C(=C1\Nc2ccccc2S1)c1nc(NCCN2CCOCC2)cc(C(F)(F)F)n1` [Compound 137A], the IC50 was found to be 2000 nM in assay [1]; 40 nM against VEGFR2 kinase; 2000 nM in the assay on p-H3 in HCT116 cells; 80 nM at Aurora A kinase; 30 nM at Aurora B kinase.
